These compounds were tested against T1, human DGAT2 (Homo sapiens, UniProt Q96PD7) (assay: biochemical).
T1 sequence (Q96PD7 1-388): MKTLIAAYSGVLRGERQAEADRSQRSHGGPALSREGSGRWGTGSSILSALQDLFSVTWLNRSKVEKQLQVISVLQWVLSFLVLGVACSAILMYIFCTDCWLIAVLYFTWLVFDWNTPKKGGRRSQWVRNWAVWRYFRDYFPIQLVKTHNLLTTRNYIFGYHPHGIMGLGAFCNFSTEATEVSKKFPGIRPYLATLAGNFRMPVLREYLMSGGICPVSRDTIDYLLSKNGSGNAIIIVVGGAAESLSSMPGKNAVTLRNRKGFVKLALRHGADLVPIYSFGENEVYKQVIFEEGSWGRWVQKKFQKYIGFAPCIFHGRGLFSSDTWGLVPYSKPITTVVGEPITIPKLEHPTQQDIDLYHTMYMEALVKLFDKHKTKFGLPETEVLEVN
Description: Cell pellets were suspended in buffer containing 10 mM Tris-HCl pH 7.5, 1 mM EDTA, 250 mM sucrose and Complete Protease Inhibitor Cocktail (Sigma Aldrich), and sonicated on ice. Cell debris were removed by centrifugation at 2000×g for 15 minutes. Membrane fractions were isolated by ultracentrifugation (100,000×g), resuspended in the same buffer, and frozen (−80° C.) for later use. The protein concentration was determined with the Pierce™ BCA Protein Assay Kit (Thermo Fisher Scientific).
LC/MS/MS analyses were performed using Thermal Fisher's LX4-TSQ Vantage system. This system consists of an Agilent binary high-performance liquid chromatography (HPLC) pump and a TSQ Vantage triple quadrupole MS/MS instrument. For each sample, 2 μL samples from the top organic layer of in-plate liquid-liquid extraction were injected onto a Thermo Betabasic C4 column (2.1 mm×20 mm, 5 μm particle size). The samples were then eluted using the following conditions; mobile phase: Isopropanol:acetonitrile/10 mM ammonium formate=50/35/15 (v/v/v), flow rate: 0.8 mL/min, temperature: 25° C. Data was acquired in positive mode using a heated electrospray ionization (HESI) interface. […] The peak area was integrated by Xcalibur Quan software. The ratio between the ^13C18 triolein generated in the reaction and spiked in internal standard ^13C21-triolein was used to generate percentage inhibition and IC50 values. […] DGAT2 activity was determined by measuring the amount of enzymatic product ^13C18-triolein (^13C-1,2,3-Tri(cis-9-octadecenoyl)glycerol) using the membrane prep mentioned above. The assay was carried out in ABgene 384-well assay plates in a final volume of 25 μL at rt.

| Structure (SMILES) | IC50 |
| --- | --- |
| CC1(NC(=O)c2nc3ccc(Oc4ncc(Cl)cc4OCC(F)(F)F)cn3n2)CS(=O)(=O)C1 [Example 10, 6-[[5-chloro-3-(2,2,2-trifluoroethoxy)-2-pyridyl]oxy]-N-(3-methyl-1,1-dioxo-thietan-3-yl)-[1,2,4]triazolo[1,5-a]pyridine-2-carboxamide] | 151 nM |
| Cc1cc2nc(C(=O)NC3(C)CCS(=O)(=O)CC3)nn2c(C)c1Oc1ncc(Cl)cc1OCC(F)(F)F [Example 24, 6-((5-Chloro-3-(2,2,2-trifluoroethoxy)pyridin-2-yl)oxy)-5,7-dimethyl-N-(4-methyl-1,1-dioxidotetrahydro-2H-thiopyran-4-yl)-[1,2,4]triazolo[1,5-a]pyridine-2-carboxamide] | 181 nM |
| CC1(NC(=O)c2nc3ccc(Oc4ncccc4OCC(F)(F)F)cn3n2)CCC(F)(F)CC1 [Example 8, N-(4,4-difluoro-1-methyl-cyclohexyl)-6-[[3-(2,2,2-trifluoroethoxy)-2-pyridyl]oxy]-[1,2,4]triazolo[1,5-a]pyridine-2-carboxamide] | 177 nM |
| CCOc1cccnc1Oc1ccc2nc(C(=O)N[C@H]3CC[C@@](OC)(C(F)(F)F)CC3)nn2c1 [Example 6, 6-[(3-ethoxy-2-pyridyl)oxy]-N-[4-methoxy-4-(trifluoromethyl)cyclohexyl]-[1,2,4]triazolo[1,5-a]pyridine-2-carboxamide] | 149 nM |
| CC1(NC(=O)c2nc3ccc(Oc4ncccc4OCC(F)(F)F)cn3n2)CCS(=O)(=O)CC1 [Example 7, N-(4-methyl-1,1-dioxo-thian-4-yl)-6-[[3-(2,2,2-trifluoroethoxy)-2-pyridyl]oxy]-[1,2,4]triazolo[1,5-a]pyridine-2-carboxamide] | 126 nM |
| Cc1c(OCc2ncc(Cl)cc2OCC(F)F)ccc2nc(C(=O)NC3(C)CCS(=O)(=O)CC3)nn12 [Example 36, 6-((5-chloro-3-(2,2-difluoroethoxy)pyridin-2-yl)methoxy)-5-methyl-N-(4-methyl-1,1-dioxidotetrahydro-2H-thiopyran-4-yl)-[1,2,4]triazolo[1,5-a]pyridine-2-carboxamide] | 336 nM |
| CCOc1cccnc1Oc1ccc2nc(C(=O)N[C@@H]3CCOC3)nn2c1 [Example 5, 6-[(3-ethoxy-2-pyridyl)oxy]-N-[(3R)-tetrahydrofuran-3-yl]-[1,2,4]triazolo[1,5-a]pyridine-2-carboxamide] | 2440 nM |
| Cc1c(Oc2ncc(Cl)cc2OCC(F)(F)F)cc(F)c2nc(C(=O)NC3(C)CS(=O)(=O)C3)nn12 [Example 29, 6-[[5-chloro-3-(2,2,2-trifluoroethoxy)-2-pyridyl]oxy]-8-fluoro-5-methyl-N-(3-methyl-1,1-dioxo-thietan-3-yl)-[1,2,4]triazolo[1,5-a]pyridine-2-carboxamide] | 383 nM |
| Cc1c(Oc2ncc(Cl)cc2OCC(F)(F)F)ccc2nc(C(=O)N[C@H]3CCCC(F)(F)[C@@H]3O)nn12 [Example 21, 6-[[5-chloro-3-(2,2,2-trifluoroethoxy)-2-pyridyl]oxy]-N-[(1S,2R)-3,3-difluoro-2-hydroxy-cyclohexyl]-5-methyl-[1,2,4]triazolo[1,5-a]pyridine-2-carboxamide] | 581 nM |
| CC1(NC(=O)c2nc3ccc(Oc4ncccc4OCC(F)(F)F)cn3n2)CC(F)(F)C1 [Example 9] | 8250 nM |
| CCOc1cccnc1Oc1ccc2nc(C(=O)N[C@H]3CCOC3)nn2c1 [Example 4, 6-[(3-ethoxy-2-pyridyl)oxy]-N-[(3S)-tetrahydrofuran-3-yl]-[1,2,4]triazolo[1,5-a]pyridine-2-carboxamide] | 384 nM |
| Cc1c(OCc2ncc(F)cc2OCC(F)(F)F)ccc2nc(C(=O)NC3(C)CCS(=O)(=O)CC3)nn12 [Example 35, 6-((5-Fluoro-3-(2,2,2-trifluoroethoxy)pyridin-2-yl)methoxy)-5-methyl-N-(4-methyl-1,1-dioxidotetrahydro-2H-thiopyran-4-yl)-[1,2,4]triazolo[1,5-a]pyridine-2-carboxamide] | 1680 nM |
| Cc1c(Oc2ncc(F)cc2OCC(C)(F)F)ccc2nc(C(=O)NC3(C)CCS(=O)(=O)CC3)nn12 [Example 19, 6-[[3-(2,2-difluoropropoxy)-5-fluoro-2-pyridyl]oxy]-5-methyl-N-(4-methyl-1,1-dioxo-thian-4-yl)-[1,2,4]triazolo[1,5-a]pyridine-2-carboxamide] | 210 nM |

Stronger by IC50, values ahead:

| IC50 | Structure (SMILES) |
| --- | --- |
| 103 nM | CCOc1cccnc1Oc1ccc2nc(C(=O)NC3(C)CS(=O)(=O)C3)nn2c1 [Example 3, 6-[(3-ethoxy-2-pyridyl)oxy]-N-(3-methyl-1,1-dioxo-thietan-3-yl)-[1,2,4]triazolo[1,5-a]pyridine-2-carboxamide] |
| 91 nM | Cc1cc2nc(C(=O)N[C@H]3CCCC(F)(F)[C@@H]3O)nn2cc1Oc1ncc(Cl)cc1OCC(F)(F)F [Example 23, 6-[[5-chloro-3-(2,2,2-trifluoroethoxy)-2-pyridyl]oxy]-N-[(1S,2R)-3,3-difluoro-2-hydroxy-cyclohexyl]-7-methyl-[1,2,4]triazolo[1,5-a]pyridine-2-carboxamide] |
| 91 nM | Cc1cc2nc(C(=O)NC3(C)CCS(=O)(=O)CC3)nn2c(C)c1Oc1nccnc1OCC(F)(F)F [Example 25, 5,7-dimethyl-N-(4-methyl-1,1-dioxo-thian-4-yl)-6-[3-(2,2,2-trifluoroethoxy)pyrazin-2-yl]oxy-[1,2,4]triazolo[1,5-a]pyridine-2-carboxamide] |
| 61 nM | Cc1c(Oc2ncc(F)cc2OCC(C)(F)F)cc(F)c2nc(C(=O)NC3(C)CCS(=O)(=O)CC3)nn12 [Example 32, 6-[[3-(2,2-difluoropropoxy)-5-fluoro-2-pyridyl]oxy]-8-fluoro-5-methyl-N-(4-methyl-1,1-dioxo-thian-4-yl)-[1,2,4]triazolo[1,5-a]pyridine-2-carboxamide] |
| 60 nM | O=C(N[C@H]1CCCC(F)(F)[C@@H]1O)c1nc2ccc(Oc3ncc(Cl)cc3OCC(F)(F)F)cn2n1 [Example 11] |
| 50 nM | Cc1c(Oc2ncc(Cl)cc2OCC(C)(F)F)ccc2nc(C(=O)NC3(C)CCS(=O)(=O)CC3)nn12 [Example 18] |
| 31 nM | Cc1c(Oc2nccnc2OCC(F)F)cc(F)c2nc(C(=O)NC3(C)CCS(=O)(=O)CC3)nn12 [Example 34, 6-[3-(2,2-difluoroethoxy)pyrazin-2-yl]oxy-8-fluoro-5-methyl-N-(4-methyl-1,1-dioxo-thian-4-yl)-[1,2,4]triazolo[1,5-a]pyridine-2-carboxamide] |
| 30 nM | Cc1c(Oc2ncc(Cl)cc2OCC(C)(F)F)cc(F)c2nc(C(=O)NC3(C)CCS(=O)(=O)CC3)nn12 [Example 31, 6-[[5-chloro-3-(2,2-difluoropropoxy)-2-pyridyl]oxy]-8-fluoro-5-methyl-N-(4-methyl-1,1-dioxo-thian-4-yl)-[1,2,4]triazolo[1,5-a]pyridine-2-carboxamide] |
| 25 nM | Cc1c(Oc2ncc(F)cc2OCC2(F)CC2)ccc2nc(C(=O)NC3(C)CCS(=O)(=O)CC3)nn12 [Example 16, 6-[[5-fluoro-3-[(1-fluorocyclopropyl)methoxy]-2-pyridyl]oxy]-5-methyl-N-(4-methyl-1,1-dioxo-thian-4-yl)-[1,2,4]triazolo[1,5-a]pyridine-2-carboxamide] |
| 19 nM | Cc1c(Oc2ncc(F)cc2OCC(F)(F)F)cc(F)c2nc(C(=O)NC3(C)CCS(=O)(=O)CC3)nn12 [Example 30, 8-fluoro-6-[[5-fluoro-3-(2,2,2-trifluoroethoxy)-2-pyridyl]oxy]-5-methyl-N-(4-methyl-1,1-dioxo-thian-4-yl)-[1,2,4]triazolo[1,5-a]pyridine-2-carboxamide] |
| 17 nM | CCOc1cccnc1Oc1ccc2nc(C(=O)NC3(C)CCS(=O)(=O)CC3)nn2c1 [Example 2, 6-[(3-ethoxy-2-pyridyl)oxy]-N-(4-methyl-1,1-dioxo-thian-4-yl)-[1,2,4]triazolo[1,5-a]pyridine-2-carboxamide] |
| 12 nM | Cc1c(Oc2ncc(Cl)cc2OCC(F)(F)F)cc(F)c2nc(C(=O)NC3(C)CCS(=O)(=O)CC3)nn12 [Example 28, 6-[[5-Chloro-3-(2,2,2-trifluoroethoxy)-2-pyridyl]oxy]-8-fluoro-5-methyl-N-(4-methyl-1,1-dioxo-thian-4-yl)-[1,2,4]triazolo[1,5-a]pyridine-2-carboxamide] |
| 11 nM | Cc1c(Oc2ncc(Cl)cc2OCC2(F)CC2)ccc2nc(C(=O)NC3(C)CCS(=O)(=O)CC3)nn12 [Example 15, 6-[[5-chloro-3-[(1-fluorocyclopropyl)methoxy]-2-pyridyl]oxy]-5-methyl-N-(4-methyl-1,1-dioxo-thian-4-yl)-[1,2,4]triazolo[1,5-a]pyridine-2-carboxamide] |
| 9.5 nM | CC1(NC(=O)c2nc3c(F)cc(Oc4ncc(Cl)cc4OCC(F)(F)F)cn3n2)CCS(=O)(=O)CC1 [Example 26, 6-((5-Chloro-3-(2,2,2-trifluoroethoxy)pyridin-2-yl)oxy)-8-fluoro-N-(4-methyl-1,1-dioxidotetrahydro-2H-thiopyran-4-yl)-[1,2,4]triazolo[1,5-a]pyridine-2-carboxamide] |
